Reference: patent US20170166879A1, “NOVEL (R)-HYDROXYNITRILE LYASE” (PUBLIC UNIVERSITY CORPORATION TOYAMA PREFECTURAL UNIVERSITY, priority 2014, published 2017)
Non-standard residues stand in square brackets, D forms with d. Residues, ends and D or L forms follow the SMILES beside them. *: point of attachment. Sta = CC(C)C[C@H](N)[C@@H](O)CC(=O)O; Isovaleryl = CC(C)CC(=O)*

Assays:
R-ChHNL [1] = molecular target: T1, R-ChHNL (Chamberlinius hualienensis, UniProt A0A0H5BR52); experiment: Search of inhibitor of R-ChHNL activity (remaining activity); format: biochemical; conditions: for remaining activity at 1000 µM / remaining activity at 10000 µM: read-out: Remaining activity; for remaining activity at 10000 µM: 10 mM
R-ChHNL [2] = molecular target: T1, R-ChHNL; experiment: Dynamic (kinetic) analysis, aldehyde substrates, Hanes-Woolf plot; conditions: aldehydes other than benzaldehyde; for Km / Vmax / kcat / max S.A. (specific activity): condition similar to the above-described condition; for relative S.A.: relative to benzaldehyde at pH 5.2 and 22° C.
Cc1cccc(C=O)c1 = experiment: purified protein, by the assay type; conditions: other: aldehydes other than benzaldehyde; condition similar to the above-described condition; pH 5.2
O=Cc1cccc2ccccc12 = experiment: purified protein, by the assay type; conditions: other: aldehydes other than benzaldehyde; condition similar to the above-described condition; pH 5.2
Cc1ccc(C=O)cc1 = experiment: purified protein, by the assay type; conditions: other: aldehydes other than benzaldehyde; condition similar to the above-described condition; pH 5.2
R-ChHNL [3] = molecular target: T1, R-ChHNL; experiment: Dynamic (kinetic) analysis, racemic mandelonitrile as substrate (decomposition reaction); format: biochemical
[4] = 1 mM, pH 7.0, 20° C., 60 minutes
[5] = concentration not given (1 mM or 0.1 mM), pH 7.0, 20° C., 60 minutes
[6] = 100 μg/mL, pH 7.0, 20° C., 60 minutes

## NC(=O)CI [iodoacetamide]
R-ChHNL [1]; [4]
  remaining activity at 1000 µM: 75%
R-ChHNL [1]; pH 7.0, 20° C., 60 minutes
  remaining activity at 10000 µM: 28%
R-ChHNL [1]; concentration increased to 10 mM
  inhibition of the activity of R-ChHNL: inhibit

## Cc1ccccc1C=O [2-methylbenzaldehyde]
R-ChHNL [2]
  Km: 3.1 mM
  Vmax: 2564.9 µmol/min/mg
  kcat: 1062.3 s⁻¹
  max S.A. (specific activity): 2395 U/mg
  relative S.A.: 32.2

## R-ChHNL (Chamberlinius hualienensis)
Cc1cccc(C=O)c1
  Km: 9.9 mM
  Vmax: 14000 µmol/min/mg
  kcat: 5800 s⁻¹
  kcat/Km: 584000 M⁻¹ s⁻¹
O=Cc1cccc2ccccc12
  Km: 0.65 mM
  Vmax: 313 µmol/min/mg
  kcat: 130 s⁻¹
  kcat/Km: 199000 M⁻¹ s⁻¹
Cc1ccc(C=O)cc1
  Km: 5.0 mM
  Vmax: 11900 µmol/min/mg
  kcat: 4940 s⁻¹
  kcat/Km: 989000 M⁻¹ s⁻¹

## CCOC(=O)OC(=O)OCC [diethylpyrocarbonate]
R-ChHNL [1]; [4]
  remaining activity at 1000 µM: 100%
R-ChHNL [1]; pH 7.0, 20° C., 60 minutes
  remaining activity at 10000 µM: 79%

## O=Cc1ccc(Br)cc1 [4-bromobenzaldehyde]
R-ChHNL [2]
  Km: 9.5 mM
  Vmax: 19940 µmol/min/mg
  kcat: 8259 s⁻¹
  max S.A. (specific activity): 17375 U/mg
  relative S.A.: 233.8

## CCC1(CC)C(=O)NC(=O)NC1=O [barbital sodium]
R-ChHNL [1]; [5]
  Remaining activity: 93%

## [Cl][Fe]([Cl])[Cl] [FeCl3]
R-ChHNL [1]; [5]
  Remaining activity: 100%

## [Cl-].[Cl-].[Co+2] [CoCl2]
R-ChHNL [1]; pH 7
  Remaining activity: 95%

## COc1cccc(C=O)c1 [3-methoxybenzaldehyde]
R-ChHNL [2]
  Km: 5.7 mM
  Vmax: 3228.2 µmol/min/mg
  kcat: 1337 s⁻¹
  max S.A. (specific activity): 3326 U/mg
  relative S.A.: 44.7

## N#CC(O)c1ccccc1 (racemic) [racemic mandelonitrile, mandelonitrile]
R-ChHNL [3]
  Km: 5.5 mM
  Vmax: 2819 µmol/min/mg
  kcat: 1168 s⁻¹
  max S.A. (specific activity): 1896 U/mg

## CCN1C(=O)C=CC1=O [N-ethylmaleimide]
R-ChHNL [1]; [5]
  Remaining activity: 100%

## [Cl][Ni][Cl] [NiCl2]
R-ChHNL [1]; [5]
  Remaining activity: 93%

## Cc1ccc(C=O)cc1 [4-methylbenzaldehyde]
R-ChHNL [2]
  max S.A. (specific activity): 11072 U/mg
  relative S.A.: 149.0

## CC(C)CC(=O)N[C@H](C(=O)N[C@H](C(=O)N[C@@H](CC(C)C)[C@@H](O)CC(=O)N[C@@H](C)C(=O)N[C@@H](CC(C)C)[C@@H](O)CC(=O)O)C(C)C)C(C)C [pepstatin A] (Isovaleryl-VV[Sta]A[Sta]-OH)
R-ChHNL [1]; [6]
  Remaining activity: 89%

## [Cl][Hg][Cl] [HgCl2]
R-ChHNL [1]; [5]
  Remaining activity: 64%

## O=[N+]([O-])[O-].[Ag+] [AgNO3]
R-ChHNL [1]; [5]
  Remaining activity: 68%

## avidin: avidin, listed as biotin reagent
R-ChHNL [1]; [6]
  Remaining activity: 96%

## CC(=O)N[C@@H](CC(C)C)C(=O)N[C@@H](CC(C)C)C(=O)N[C@H](C=O)CCCNC(=N)N [leupeptin]
R-ChHNL [1]; [6]
  remaining activity at 100 µg/mL: 86%

## O[C@@H](CS)[C@@H](O)CS [DTT]
R-ChHNL [1]; [5]
  Remaining activity: 100%

## [Cl][Pb][Cl] [PbCl2]
R-ChHNL [1]; 0.1 mM, pH 7.0, 20° C., 60 minutes
  Remaining activity: 98%
R-ChHNL [1]; [4]
  Remaining activity: 77%

## NC(=S)Nc1ccccc1 [phenylthiourea]
R-ChHNL [1]; [5]
  Remaining activity: 100%

## O=C(O)c1cc[c]([Hg][Cl])cc1 [p-chloromercuribenzoic acid]
R-ChHNL [1]; [5]
  Remaining activity: 100%

## O=S(=O)([O-])[O-].[Cu+2] [CuSO4]
R-ChHNL [1]; [5]
  Remaining activity: 100%
